Values after ≈ are worked out from the molar mass of the structure shown.
How the values were obtained:
Type in all cases: functional
Staphylococcus aureus = assay: Minimum inhibitory concentration of the compound against erythromycin-susceptible Staphylococcus aureus Smith OC4172 was determined
Streptococcus pneumoniae [1] = assay: Minimum inhibitory concentration of the compound against 3 […] Streptococcus pneumoniae OC4051 with an erm(B)-ribosomal methylase-mediated resistance was determined
Mus musculus [2] = assay: Effective dose required to inhibit Staphylococcus aureus in mouse was determined after peroral administration of the compound; details: po
Enterococcus faecalis = assay: Minimum inhibitory concentration of the compound againstEnterococcus faecalis ATCC 51299 with an erm(B)-encoded ribosomal methylase was determined
Haemophilus influenzae = assay: Minimum inhibitory concentration of the compound against Haemophilus influenzae OC4882 was determined
Mus musculus [3] = assay: Effective dose required to inhibit Staphylococcus aureus in mouse was determined after sub cutaneous administration (6.6-70)
Streptococcus pneumoniae [4] = assay: Minimum inhibitory concentration of the compound against 3 […] Streptococcus pneumoniae OC4421 with an mef(A) efflux-mediated resistance was determined
Streptococcus pneumoniae [5] = assay: Minimum inhibitory concentration of the compound against erythromycin-susceptible Streptococcus pneumoniae was determined

| SMILES | MIC (Staphylococcus aureus) [µg/mL] | MIC (Streptococcus pneumoniae [1]) [µg/mL] | ED50 (Mus musculus [2]) [mg/kg] | MIC (Enterococcus faecalis) [µg/mL] | MIC (Haemophilus influenzae) [µg/mL] | ED50 (Mus musculus [3]) [mg/kg] | MIC (Streptococcus pneumoniae [4]) [µg/mL] | MIC (Streptococcus pneumoniae [5]) [µg/mL] |
| --- | --- | --- | --- | --- | --- | --- | --- | --- |
| CC[C@H]1OC(=O)[C@@](C)(F)C(=O)[C@H](C)[C@@H](O[C@@H]2O[C@H](C)C[C@H](N(C)C)[C@H]2O)[C@](C)(OC(=O)NC/C=C/c2ccc(-c3ncccn3)cc2)C[C@@H](C)C(=O)[C@H](C)[C@H]2NC(=O)O[C@@]21C | 0.5 (≈ 0.585 µM) | 0.12 (≈ 0.141 µM) | > 40 | 8 (≈ 9.37 µM) | 8 (≈ 9.37 µM) | 12 | 0.12 (≈ 0.141 µM) | 0.06 (≈ 0.0703 µM) |
| CC[C@H]1OC(=O)[C@@](C)(F)C(=O)[C@H](C)[C@@H](O[C@@H]2O[C@H](C)C[C@H](N(C)C)[C@H]2O)[C@](C)(OC(=O)NC/C=C/c2ccc(-c3ccccn3)cc2)C[C@@H](C)C(=O)[C@H](C)[C@H]2NC(=O)O[C@@]21C | 0.25 (≈ 0.293 µM) | 0.06 (≈ 0.0703 µM) |  | 4 (≈ 4.69 µM) | 4 (≈ 4.69 µM) |  | 0.12 (≈ 0.141 µM) | 0.06 (≈ 0.0703 µM) |
| CC[C@H]1OC(=O)[C@@](C)(F)C(=O)[C@H](C)[C@@H](O[C@@H]2O[C@H](C)C[C@H](N(C)C)[C@H]2O)[C@](C)(OC(=O)NCc2cn(-c3ncccn3)cn2)C[C@@H](C)C(=O)[C@H](C)[C@H]2NC(=O)O[C@@]21C | 0.25 (≈ 0.306 µM) | 0.12 (≈ 0.147 µM) |  | > 16 | 4 (≈ 4.89 µM) |  | 0.5 (≈ 0.611 µM) | 0.03 (≈ 0.0367 µM) |
| CC[C@H]1OC(=O)[C@H](C)C(=O)[C@H](C)[C@@H](O[C@@H]2O[C@H](C)C[C@H](N(C)C)[C@H]2O)[C@](C)(OC)C[C@@H](C)C(=O)[C@H](C)[C@H]2N(CCCCn3cnc(-c4cccnc4)c3)C(=O)O[C@]12C [TELITHROMYCIN] | 0.12 (≈ 0.148 µM) | 0.06 (≈ 0.0739 µM) |  | 16 (≈ 19.7 µM) | 2 (≈ 2.46 µM) |  | 0.12 (≈ 0.148 µM) | ≤ 0.015 |
| CC[C@H]1OC(=O)[C@@](C)(F)C(=O)[C@H](C)[C@@H](O[C@@H]2O[C@H](C)C[C@H](N(C)C)[C@H]2O)[C@](C)(OC(=O)NC/C=C/c2ccc(-c3cccnn3)cc2)C[C@@H](C)C(=O)[C@H](C)[C@H]2NC(=O)O[C@@]21C | 0.12 (≈ 0.141 µM) | 0.06 (≈ 0.0703 µM) |  | 4 (≈ 4.68 µM) | 4 (≈ 4.68 µM) |  | 0.12 (≈ 0.141 µM) | 0.03 (≈ 0.0351 µM) |
| CC[C@H]1OC(=O)[C@@](C)(F)C(=O)[C@H](C)[C@@H](O[C@@H]2O[C@H](C)C[C@H](N(C)C)[C@H]2O)[C@](C)(OC(=O)NC/C=C/c2ccccc2)C[C@@H](C)/C(=N\O)[C@H](C)[C@H]2NC(=O)O[C@@]21C | 0.25 (≈ 0.316 µM) | 0.12 (≈ 0.152 µM) |  | > 16 | 2 (≈ 2.53 µM) |  | 0.5 (≈ 0.632 µM) | 0.03 (≈ 0.0379 µM) |
| CC[C@H]1OC(=O)[C@@](C)(F)C(=O)[C@H](C)[C@@H](O[C@@H]2O[C@H](C)C[C@H](N(C)C)[C@H]2O)[C@](C)(OC(=O)NCCOCc2ccc(-c3ncccn3)cc2)C[C@@H](C)/C(=N\O)[C@H](C)[C@H]2NC(=O)O[C@@]21C | 0.5 (≈ 0.564 µM) | 0.06 (≈ 0.0676 µM) |  | 16 (≈ 18 µM) | 8 (≈ 9.02 µM) |  | 0.25 (≈ 0.282 µM) | 0.06 (≈ 0.0676 µM) |
| CC[C@H]1OC(=O)[C@@](C)(F)C(=O)[C@H](C)[C@@H](O[C@@H]2O[C@H](C)C[C@H](N(C)C)[C@H]2O)[C@](C)(OC(=O)NCCOCc2ccc(-c3ncccn3)cc2)C[C@@H](C)C(=O)[C@H](C)[C@H]2NC(=O)O[C@@]21C | 0.25 (≈ 0.287 µM) | 0.12 (≈ 0.138 µM) |  | > 16 | 8 (≈ 9.17 µM) |  | 0.12 (≈ 0.138 µM) | 0.06 (≈ 0.0688 µM) |
| CC[C@H]1OC(=O)[C@@](C)(F)C(=O)[C@H](C)[C@@H](O[C@@H]2O[C@H](C)C[C@H](N(C)C)[C@H]2O)[C@](C)(OC(=O)NC/C=C/c2cn(-c3ncccn3)cn2)C[C@@H](C)C(=O)[C@H](C)[C@H]2NC(=O)O[C@@]21C | 0.12 (≈ 0.142 µM) | 0.06 (≈ 0.0711 µM) |  | 8 (≈ 9.48 µM) | 8 (≈ 9.48 µM) |  | 0.25 (≈ 0.296 µM) | 0.03 (≈ 0.0355 µM) |
| CC[C@H]1OC(=O)[C@@](C)(F)C(=O)[C@H](C)[C@@H](O[C@@H]2O[C@H](C)C[C@H](N(C)C)[C@H]2O)[C@](C)(OC(=O)NC/C=C/c2ccc(-n3cccn3)cc2)C[C@@H](C)C(=O)[C@H](C)[C@H]2NC(=O)O[C@@]21C | 0.25 (≈ 0.297 µM) | 0.12 (≈ 0.143 µM) |  | 8 (≈ 9.5 µM) | 8 (≈ 9.5 µM) |  | 0.5 (≈ 0.594 µM) | 0.03 (≈ 0.0356 µM) |
| CC[C@H]1OC(=O)[C@@](C)(F)C(=O)[C@H](C)[C@@H](O[C@@H]2O[C@H](C)C[C@H](N(C)C)[C@H]2O)[C@](C)(OC(=O)NC/C=C/c2ccc(-c3cccnn3)cc2)C[C@@H](C)/C(=N\O)[C@H](C)[C@H]2NC(=O)O[C@@]21C | 0.5 (≈ 0.575 µM) | 0.06 (≈ 0.069 µM) |  | > 4 | 2 (≈ 2.3 µM) |  | 0.25 (≈ 0.288 µM) | 0.03 (≈ 0.0345 µM) |
| CC[C@H]1OC(=O)[C@@](C)(F)C(=O)[C@H](C)[C@@H](O[C@@H]2O[C@H](C)C[C@H](N(C)C)[C@H]2O)[C@](C)(OC(=O)NC/C=C/c2ccc3ncccc3c2)C[C@@H](C)C(=O)[C@H](C)[C@H]2NC(=O)O[C@@]21C | 0.25 (≈ 0.302 µM) | 0.06 (≈ 0.0726 µM) |  | 4 (≈ 4.84 µM) | 4 (≈ 4.84 µM) |  | 0.06 (≈ 0.0726 µM) | 0.06 (≈ 0.0726 µM) |
